From patent US9200046B2, “Reporter system for high throughput screening of compounds and uses thereof” (priority 2011, dated 2015)
Values joined by “and” are separate entries in the source; they are usually repeats but may differ in a detail not shown here. Identical values can stand only once. “Also recorded” adds a separate entry of the source. Like-named read-outs stand apart in the source and are kept apart here.

What was measured:
[1] = test system: Neh2-luciferase fusion protein in SH-SY5Y cells; type: cell-based, human; details: for lag-period of reporter activation: time-course of Neh2-luc activation
Experimental: Cells were plated at the density of 25,000 cell per well using a WellMate multichannel dispenser from Matrix (Thermo Fisher Scientific) and grown overnight on DMEM/F12+GlutaMAX (100 μl per well). Then the inhibitor was added, and the plates were incubated for a fixed time interval; the medium was removed, cells lysed in 20 μL (out of which 4 μL were taken for protein measurement), then BrightGlo™ reagent (Promega) was added to the wells and luciferase activity measured on a luminometer Lmax11384 (Molecular Devices). The reporter activation was normalized to the background luminescence divided by protein concentration. Kinetics of reporter activation were measured by adding varied fixed concentrations of an inhibitor at different time points followed by simultaneous cell lysis, protein determination, and luciferase activity measurement in the whole 96-well plate; this assay format minimizes experimental error originating from the well-known instability of luciferase reagent.

FLAG-Keap1 = target: T1, FLAG-Keap1 (Homo sapiens, UniProt Q14145); type: cell-based
T1 construct: expressed in transfected cells; host or cells: HEK293 (transient expression)
T1 sequence (Q14145 whole entry): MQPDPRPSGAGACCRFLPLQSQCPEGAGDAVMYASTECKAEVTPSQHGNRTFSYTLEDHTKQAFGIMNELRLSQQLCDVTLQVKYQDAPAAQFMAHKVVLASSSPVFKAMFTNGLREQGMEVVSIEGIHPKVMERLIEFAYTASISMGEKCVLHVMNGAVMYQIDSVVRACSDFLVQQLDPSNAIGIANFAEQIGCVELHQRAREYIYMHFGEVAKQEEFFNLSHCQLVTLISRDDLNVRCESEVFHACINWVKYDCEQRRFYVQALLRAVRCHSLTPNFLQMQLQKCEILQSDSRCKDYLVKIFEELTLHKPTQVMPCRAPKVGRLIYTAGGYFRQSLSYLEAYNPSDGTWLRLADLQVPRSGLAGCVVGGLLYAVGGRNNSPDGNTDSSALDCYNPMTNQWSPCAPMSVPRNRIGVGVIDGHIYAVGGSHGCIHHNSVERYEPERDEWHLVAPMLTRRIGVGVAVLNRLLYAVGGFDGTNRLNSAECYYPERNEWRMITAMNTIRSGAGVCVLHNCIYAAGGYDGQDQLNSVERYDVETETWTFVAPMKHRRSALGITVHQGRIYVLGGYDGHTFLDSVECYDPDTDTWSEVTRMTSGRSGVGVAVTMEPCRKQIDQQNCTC
Experimental: FIG. 12. Supporting to FIG. 5. […] A: structural formulas of the compounds used; B: competition with Keap1 labeling. HEK293 cells transiently expressing FLAG-Keap1 were incubated with 200 μM competing compounds (sulforaphane, fisetin, quercetin, gedunin, TBHQ, ciclopirox, geldanamycin) and then further incubated with 10 μM sulfoxythiocarbate-alkyne (STCA) for 30 min at 37° C. FLAG-Keap1 was immunoprecipitated from cell lysates, subjected to click reaction with biotin azide on beads, and eluted with SDS-loading buffer. […] All values are presented as mean±SEM.
Keap1 labeling experiments were performed as described previously (AHN et al., Proc. Natl. […]. USA., 107: 9590-9595 (2010)) with following modifications. HEK293 cells transiently expressing FLAG-Keap1 were incubated with 200 μM competing compounds (sulforaphane, fisetin, quercetin, gedunin, TBHQ, ciclopirox, geldanamycin) in serum-free DMEM for 1 h. After washing with PBS, cells were further incubated with 10 μM sulfoxythiocarbate-alkyne (STCA) for 30 min at 37° C. FLAG-Keap1 was immunoprecipitated from cell lysates, subjected to click reaction with biotin azide on beads, and eluted with SDS-loading buffer. Eluted samples were immunoblotted with Streptavidin-HRP (Pierce) and anti-FLAG antibodies (Sigma).

Nrf2-Keap1 complex = Nrf2-Keap1 complex (Homo sapiens, UniProt Q14145); assay: cell-based; type: cell-based; details: for activation at 16 µM / activation at 32 µM: 3 h; for activation at 16 µM: read-out: Activation 100 nL; for activation at 32 µM: read-out: Activation 200 nL
Chain of Nrf2-Keap1 complex (Q14145 whole entry, one chain of several): as the sequence (Q14145 whole entry) above

[2] = 200 μM competing compound, HEK293 cells, then 10 μM STCA 30 min
[3] = Table 1A, 100 nL compound, screen run at 16 and 32 μM, 3 hr
[4] = Table 1A, 200 nL compound, screen run at 16 and 32 μM, 3 hr
[5] = Table 2, 100 nL compound, screen run at 16 and 32 μM, 3 hr
[6] = Table 2, 200 nL compound, screen run at 16 and 32 μM, 3 hr

Row | Compound | activation at 16 µM (Nrf2-Keap1 complex) [%] | activation at 32 µM (Nrf2-Keap1 complex) [%] | 100 nL (luminescence) (Nrf2-Keap1 complex; [5]) | 200 nL (luminescence) (Nrf2-Keap1 complex; [6]) | also measured
1 | Nc1ccccc1N [oPD, ortho-phenylene diamine] | – | – | – | – | lag-period of reporter activation [1]: 40 to 50 min
2 | COC1=C2C[C@@H](C)C[C@H](OC)[C@H](O)[C@@H](C)/C=C(\C)[C@H](OC(N)=O)[C@@H](OC)/C=C\C=C(/C)C(=O)NC(=CC1=O)C2=O [geldanamycin, reference compound] | – | – | – | – | activation effect ([1]; in the range of 0.5-1.5 μM): 2-3 fold
3 | Oc1ccccc1O [catechol, o-catechol] | – | – | – | – | lag-period of reporter activation [1]: 20 min
4 | O=c1c(O)c(-c2ccc(O)c(O)c2)oc2cc(O)cc(O)c12 [quercetin, 3,5,7,3′,4′-pentahydroxyflavone] | – | – | – | – | competition with Keap1 labeling by STCA (FLAG-Keap1; [2]): very modest competition; type of reporter activation by time-course [1]: immediate activation but gradual stabilization over time
5 | C[S+]([O-])CCCCN=C=S (centres unmarked) [sulforaphane, reference compound] | – | – | – | – | competition with Keap1 labeling by STCA (FLAG-Keap1): decent competition; also recorded: inhibits Keap1 labeling completely; type of reporter activation by time-course [1]: immediate activation but gradual stabilization over time
6 | Cc1cc(C2CCCCC2)n(O)c(=O)c1 [ciclopirox, reference compound] | – | – | – | – | competition with Keap1 labeling by STCA (FLAG-Keap1; [2]): no competition with Keap1 labeling
7 | NC(=O)c1ccc[n+]([C@@H]2O[C@H](COP(=O)([O-])OP(=O)(O)OC[C@H]3O[C@@H](n4cnc5c(N)ncnc54)[C@H](O)[C@@H]3O)[C@@H](O)[C@H]2O)c1 [NADIDE, reference compound] | 31 | 16 | – | – | 100 nL (luminescence) (Nrf2-Keap1 complex; [3]): 640; 200 nL (luminescence) (Nrf2-Keap1 complex; [4]): 712
8 | Nc1nc(N)c2nc(-c3ccccc3)c(N)nc2n1 [reference compound] | 405 | 23 | – | – | 100 nL (luminescence) (Nrf2-Keap1 complex; [3]): 3914; 200 nL (luminescence) (Nrf2-Keap1 complex; [4]): 872
9 | COc1cc(C)c2c(c1C=O)Oc1c(c(C)c(O)c3c1C(O)OC3=O)OC2=O (centres unmarked) [[…]] | 56 | 65 | 1114 | 1952 | –
10 | CNC(=O)Oc1cccc2c1OC(C)(C)O2 [BENDIOCARB] | 87 | 101 | – | – | 100 nL (luminescence) (Nrf2-Keap1 complex): 1532; 200 nL (luminescence) (Nrf2-Keap1 complex): 2760
11 | CC1(C)C(=O)C=C[C@]2(C)[C@H]3CC[C@@]4(C)[C@H](c5ccoc5)OC(=O)[C@H]5O[C@]54[C@]3(C)C=C[C@@H]12 [7-DESACETOXY-6,7-DEHYDROGEDUNIN] | – | – | 1660 | 188 | Activation 100 nL (Nrf2-Keap1 complex): 85%; Activation 200 nL (Nrf2-Keap1 complex): −9%
12 | CC(=O)O[C@H]1CC[C@]2(C)C(C[C@@H](OC(C)=O)[C@]3(C)C4=CC(=O)O[C@H](c5ccoc5)[C@@]4(C)CCC23)C1(C)C (stereo partly drawn) [3-DEOXO-3beta-ACETOXYDEOXYDIHYDROGEDUNIN] | – | – | 1256 | 1252 | Activation 100 nL (Nrf2-Keap1 complex): 59%; Activation 200 nL (Nrf2-Keap1 complex): 61%
13 | COc1ccc2c(c1)OCC(Cc1ccc(O)c(OC)c1)C2=O (centres unmarked) | – | – | – | – | 100 nL (luminescence) (Nrf2-Keap1 complex): 1416 and 900
14 | O=C(CC(=O)c1ccccc1)c1ccccc1 [DIBENZOYLMETHANE] | 66 | -8 | – | – | 100 nL (luminescence) (Nrf2-Keap1 complex): 1368; 200 nL (luminescence) (Nrf2-Keap1 complex): 204
15 | COc1ccc2c(c1)OCC(Cc1ccc(OC(C)=O)c(OC)c1)C2=O (centres unmarked) | – | – | 3740 | 1388 | Activation 100 nL (Nrf2-Keap1 complex): 221%; Activation 200 nL (Nrf2-Keap1 complex): 70%
16 | COC1=CC(=O)C(C(=O)c2ccccc2)=CC1=O [2-BENZOYL-5-METHOXYBENZOQUINONE] | 72 | 83 | 994 | 2280 | –
17 | CC(=O)Oc1ccc(Cl)c2cccnc12 [CHLOROACETOXYQUINOLINE] | 60 | 37 | – | – | Neh2-luc reporter activation (Nrf2-Keap1 complex): 60%
18 | COc1ccc2cc1Oc1ccc(cc1)C[C@H]1c3cc(c(OC)cc3CCN1C)Oc1c(OC)c(OC)cc3c1[C@H](C2)N(C)CC3 [TETRANDRINE] | 85 | 18 | – | – | 100 nL (luminescence) (Nrf2-Keap1 complex; [3]): 1660; 200 nL (luminescence) (Nrf2-Keap1 complex; [4]): 596

Row | Compound | activation at 16 µM (Nrf2-Keap1 complex) [%] | activation at 32 µM (Nrf2-Keap1 complex) [%] | 100 nL (luminescence) (Nrf2-Keap1 complex; [5]) | 200 nL (luminescence) (Nrf2-Keap1 complex; [6]) | also measured
19 | COc1cc(O)c(C(=O)/C=C/c2ccc(O)c(OC)c2)c(OC)c1 [2′,4-DIHYDROXY-3,4′,6′-TRIMETHOXYCHALCONE] | 655 | 305 | 6104 | 7512 | –
20 | O=C(C=C(O)c1ccccc1)c1ccccc1O [2′,beta-DIHYDROXYCHALCONE] | – | – | 2064 | 44 | Activation 100 nL (Nrf2-Keap1 complex): 112%; Activation 200 nL (Nrf2-Keap1 complex): −18%
21 | CC(C)=CCC1=C(O)C(=O)c2ccccc2C1=O [LAPACHOL] | 47 | 24 | – | – | –
22 | C=C1CC[C@H]2O[C@]2(C)CC[C@@H]2[C@@H]1CC2(C)C [CARYLOPHYLLENEOXIDE] | – | – | 874 | 488 | Activation 100 nL (Nrf2-Keap1 complex): 38%; Activation 200 nL (Nrf2-Keap1 complex): 2%
23 | COc1c(O)cc2oc3cc(O)c(CC=C(C)C)c(O)c3c(=O)c2c1CC=C(C)C [alpha-MANGOSTIN] | – | – | – | – | 100 nL (luminescence) (Nrf2-Keap1 complex): 736; 200 nL (luminescence) (Nrf2-Keap1 complex): 16; Activation 100 nL (Nrf2-Keap1 complex): 28%; Activation 200 nL (Nrf2-Keap1 complex): −19%
24 | O=S(=O)(O)CCS [MESNA, reference compound] | 28 | 18 | – | – | 100 nL (luminescence) (Nrf2-Keap1 complex): 952; 200 nL (luminescence) (Nrf2-Keap1 complex): 612
25 | O=C(/C=C/c1ccc(O)cc1)c1ccccc1O [2′,4-DIHYDROXYCHALCONE] | 390 | -9 | 3784 | 120 | –
26 | COc1ccc2c(c1)OC/C(=C\c1ccc(OC)c(O)c1)C2=O [SAPPANONEADIMETHYLETHER] | 377 | 110 | 6124 | 2008 | –
27 | COc1cc(O)c2c(=O)cc(C)oc2c1CC=C(C)C [HETEROPEUCENIN, METHYLETHER] | – | – | 772 | 1020 | Activation 100 nL (Nrf2-Keap1 complex): 27%; Activation 200 nL (Nrf2-Keap1 complex): 45%
28 | O=C1CN(/N=C/c2ccc([N+](=O)[O-])o2)C(=O)N1 [NITROFURANTOIN, reference compound] | 30 | 47 | – | – | –
29 | O=C1C=CC(=O)c2c(O)cccc21 [JUGLONE] | 58 | 95 | – | – | –
30 | C=C1C[C@@H]2[C@H](CC[C@]3(C)C(=O)CC[C@@H]23)[C@@]2(C)C=CC(=O)C=C12 [EXEMESTANE, reference compound] | 261 | 220 | 4836 | 4668 | –
31 | COc1ccc2c(c1)OC/C(=C/c1ccc(OC)c(OC)c1)C2=O [SAPPANONEATRIMETHYLETHER] | 246 | 93 | 3652 | 2586 | –
32 | CC(=O)O[C@H]1CC[C@]2(C)[C@H]3CC[C@@]4(C)[C@H](c5ccoc5)OC(=O)[C@H]5O[C@]54[C@]3(C)[C@H](OC(C)=O)C[C@H]2C1(C)C [3beta-ACETOXYDEOXODIHYDROGEDUNIN] | – | – | 924 | 972 | Activation 100 nL (Nrf2-Keap1 complex): 37%; Activation 200 nL (Nrf2-Keap1 complex): 42%
33 | CC1=C(/C=C/C(C)=C/C=C/C(C)=C\C(=O)O)C(C)(C)CCC1 [ISOTRETINON, reference compound] | – | – | 1068 | 1456 | Activation 100 nL (Nrf2-Keap1 complex): 34%; Activation 200 nL (Nrf2-Keap1 complex): 86%
34 | CCOC(=O)CCC(=O)O[C@H]1[C@H](O[C@@H]2[C@@H](C)[C@H](O[C@H]3C[C@@](C)(OC)[C@@H](O)[C@H](C)O3)[C@@H](C)C(=O)O[C@H](CC)[C@@](C)(O)[C@H](O)[C@@H](C)C(=O)[C@H](C)C[C@@]2(C)O)O[C@H](C)C[C@@H]1N(C)C [ERYTHROMYCINETHYLSUCCINATE, reference compound] | 41 | -20 | – | – | –
35 | C[C@@](Cc1ccc(O)c(O)c1)(NN)C(=O)O [CARBIDOPA, reference compound] | 217 | 67 | 2262 | 1900 | –
36 | O=C(CCBr)N1CCN(C(=O)CCBr)CC1 [PIPOBROMAN, reference compound] | 79 | 185 | – | – | 100 nL (luminescence) (Nrf2-Keap1 complex): 1976; 200 nL (luminescence) (Nrf2-Keap1 complex): 3732
